Square brackets hold non-standard residues; d marks the D form. Peptide text beside a SMILES is read from it. 2Nal = N[C@@H](Cc1ccc2ccccc2c1)C(=O)O; Cit = NC(=O)NCCC[C@H](N)C(=O)O
Key:
in vitro = conditions: human, HELA cells (Acc57)
CXCR4 = CXCR4 (Homo sapiens, UniProt P61073); assay: Ca2+-assay method 1: CXCR4-antagonizing activity; assay type: cell-based; design: expressed in transfected cells; conditions: method 1 (Ex. 1-53), CXCR4 transfected pre-B cells, Fura-2; read-out: IC50 (nM) Ca^2+ assay
Description: 2.2. Ca^2+-Assay: CXCR4-Antagonizing Activity of the Peptides.
The cells were washed free from Fura-2-AM with a platelet centrifuge and resuspended in 800 μl MSB containing 5 mM D-Glucose. The peptides to be administered were diluted to a 100 fold end concentration in MSB/0.2% PPL, and 8 μl were injected. […] Measurements were done under continuous stirring at 37° C. The signal intension was calibrated with 3 mM CaCl2/[…] lonomycin (maximal fura-2-acetoxymethylester saturation) and 10 μM MnCl2 (minimal Fura-2-acetoxymethylester saturation) and [Ca^2+]i-changes are presented in % fora-2-acetoxymethylester saturation. The rate of [Ca^2+]i-changes was calculated on the basis of the initial [Ca^2+]i-changes and plotted in dependence of chemokine concentration to obtain a sigmoidal curve and to determine the IC50 values.
Osmolarity: 310 mOsm adjusted with NaOH or HCl, adjusted with H2O or PBS.
MSB plus: 5 mM D-glucose in MSB (50 mg/50 mL).
Fura 2-acetoxymethylester: 1 mM stock solution in dimethylsulfoxide.

[1] = tested on: human red blood cells (hRBC); assay: Hemolysis; assay type: cell-based
In short: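 Washed fresh human erythrocytes (20% v/v, about 0.9×10^9 cells/ml final) incubated with peptide at 100 μM for 1 h at 37° C. Supernatant diluted 20-fold and OD540 read. Percent hemolysis relative to 0.1% Triton X-100 in H2O (100%), with PBS alone as 0%.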
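Wherever CC50 is given: MTT reduction read as absorbance at 595 nm, blank-corrected and expressed as percent growth relative to the time-zero cell reading, triplicate wells per concentration.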

Chain of CXCR4 (P61073 whole entry): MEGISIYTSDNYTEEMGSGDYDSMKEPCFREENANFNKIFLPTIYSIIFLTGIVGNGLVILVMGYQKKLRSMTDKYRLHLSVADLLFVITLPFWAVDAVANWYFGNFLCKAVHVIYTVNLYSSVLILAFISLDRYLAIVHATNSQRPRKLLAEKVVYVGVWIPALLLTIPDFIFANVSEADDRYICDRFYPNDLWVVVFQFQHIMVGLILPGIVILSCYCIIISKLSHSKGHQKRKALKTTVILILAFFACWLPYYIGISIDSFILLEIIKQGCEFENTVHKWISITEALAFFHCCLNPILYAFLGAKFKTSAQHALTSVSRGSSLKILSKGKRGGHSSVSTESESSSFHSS

| Compound | CC50 at 48 h (in vitro) | IC50 (CXCR4) | Hemolysis at 100 μM [1] |
| --- | --- | --- | --- |
| CC(C)[C@@H]1NC(=O)[C@H](Cc2ccc3ccccc3c2)NC(=O)[C@H](CCCNC(=N)N)NC(=O)[C@@H](CCCNC(=N)N)NC(=O)[C@H](CCCNC(=N)N)NC(=O)[C@H](C(C)C)NC(=O)[C@H](CCCNC(N)=O)NC(=O)[C@H](CCCNC(=N)N)NC(=O)[C@H](Cc2ccc(O)cc2)NC(=O)[C@@H]2CCCN2C(=O)[C@H]2CCCN2C(=O)[C@H](CCCCN)NC(=O)[C@H](CCCNC(N)=O)NC(=O)[C@H](Cc2ccc(O)cc2)NC1=O [compound 2] (cyclo(YR[Cit]VR[dR]R[2Nal]VY[Cit]K[dP]P)) | 97 µM | 2830 nM | 0.9% |
| N=C(N)NCCC[C@@H]1NC(=O)[C@H](CCCNC(=N)N)NC(=O)[C@H](Cc2ccccc2)NC(=O)[C@H](CCCNC(N)=O)NC(=O)[C@H](CCCNC(=N)N)NC(=O)[C@H](Cc2ccc(O)cc2)NC(=O)[C@@H]2CCCN2C(=O)[C@H]2CCCN2C(=O)[C@H](CCCCN)NC(=O)[C@H](CCCNC(N)=O)NC(=O)[C@H](Cc2ccc(O)cc2)NC(=O)[C@H](Cc2ccccc2)NC(=O)[C@H](Cc2ccc3ccccc3c2)NC(=O)[C@H](CCCNC(=N)N)NC1=O [compound 3] (cyclo(YR[Cit]FRRR[2Nal]FY[Cit]K[dP]P)) | 126 µM | 1000 nM | 1.7% |
| CC(C)[C@@H]1NC(=O)[C@H](CCCNC(N)=O)NC(=O)[C@H](CCCNC(=N)N)NC(=O)[C@H](Cc2ccc(O)cc2)NC(=O)[C@@H]2CCCN2C(=O)[C@H]2CCCN2C(=O)[C@H](CCCCN)NC(=O)[C@H](CCCNC(N)=O)NC(=O)[C@H](Cc2ccc(O)cc2)NC(=O)[C@H](Cc2ccccc2)NC(=O)[C@H](Cc2ccc3ccccc3c2)NC(=O)[C@H](CCCNC(=N)N)NC(=O)[C@H](CCCNC(=N)N)NC(=O)[C@H](CCCNC(=N)N)NC1=O [compound 4] (cyclo(YR[Cit]VRRR[2Nal]FY[Cit]K[dP]P)) | 191 µM | 2540 nM | 0.7% |
| CC(C)[C@@H]1NC(=O)[C@H](Cc2ccc3ccccc3c2)NC(=O)[C@H](CCCNC(=N)N)NC(=O)[C@H](CCCNC(=N)N)NC(=O)[C@@H]2CCCN2C(=O)[C@H](CCCNC(N)=O)NC(=O)[C@H](CCCNC(=N)N)NC(=O)[C@H](Cc2ccccc2)NC(=O)[C@H](CCCNC(N)=O)NC(=O)[C@H](CCCNC(=N)N)NC(=O)[C@H](Cc2ccc(O)cc2)NC(=O)[C@@H]2CCCN2C(=O)[C@H]2CCCN2C(=O)[C@H](CCCCN)NC(=O)[C@H](CCCNC(N)=O)NC(=O)[C@H](Cc2ccc(O)cc2)NC1=O [compound 20] (cyclo(YR[Cit]FR[Cit]PRR[2Nal]VY[Cit]K[dP]P)) | 85 µM | 3730 nM | 0.2% |
| CC(C)[C@@H]1NC(=O)[C@H](Cc2ccc3ccccc3c2)NC(=O)[C@H](CCCNC(=N)N)NC(=O)[C@H](CCCNC(=N)N)NC(=O)[C@H]2CCCN2C(=O)[C@H](C(C)C)NC(=O)[C@H](CCCNC(=N)N)NC(=O)[C@H](Cc2ccccc2)NC(=O)[C@H](CCCNC(N)=O)NC(=O)[C@H](CCCNC(=N)N)NC(=O)[C@H](Cc2ccc(O)cc2)NC(=O)[C@@H]2CCCN2C(=O)[C@H]2CCCN2C(=O)[C@H](CCCCN)NC(=O)[C@H](CCCNC(N)=O)NC(=O)[C@H](Cc2ccc(O)cc2)NC1=O [compound 21] (cyclo(YR[Cit]FRV[dP]RR[2Nal]VY[Cit]K[dP]P)) | 114 µM | 550 nM | 0.6% |
| CC(C)[C@@H]1NC(=O)[C@H](Cc2ccc3ccccc3c2)NC(=O)[C@H](CCCNC(=N)N)NC(=O)[C@H](CCCNC(=N)N)NC(=O)[C@@H]2CCCN2C(=O)[C@H](C(C)C)NC(=O)[C@H](CCCNC(=N)N)NC(=O)[C@H](Cc2ccccc2)NC(=O)[C@H](CCCNC(N)=O)NC(=O)[C@H](CCCNC(=N)N)NC(=O)[C@H](Cc2ccc(O)cc2)NC(=O)[C@@H]2CCCN2C(=O)[C@H]2CCCN2C(=O)[C@H](CCCCN)NC(=O)[C@H](CCCNC(N)=O)NC(=O)[C@H](Cc2ccc(O)cc2)NC1=O [compound 22] (cyclo(YR[Cit]FRVPRR[2Nal]VY[Cit]K[dP]P)) | 139 µM | 300 nM | 0% |
| CC(C)[C@@H]1NC(=O)[C@H](Cc2ccc3ccccc3c2)NC(=O)[C@H](CCCNC(=N)N)NC(=O)[C@H](CCCNC(=N)N)NC(=O)[C@H]2CCCN2C(=O)[C@H](Cc2ccccc2)NC(=O)[C@H](CCCNC(=N)N)NC(=O)[C@H](Cc2ccccc2)NC(=O)[C@H](CCCNC(N)=O)NC(=O)[C@H](CCCNC(=N)N)NC(=O)[C@H](Cc2ccc(O)cc2)NC(=O)[C@@H]2CCCN2C(=O)[C@H]2CCCN2C(=O)[C@H](CCCCN)NC(=O)[C@H](CCCNC(N)=O)NC(=O)[C@H](Cc2ccc(O)cc2)NC1=O [compound 23] (cyclo(YR[Cit]FRF[dP]RR[2Nal]VY[Cit]K[dP]P)) | 49 µM | 1550 nM | 1.4% |
| CC(C)[C@@H]1NC(=O)[C@H](Cc2ccc3ccccc3c2)NC(=O)[C@H](CCCNC(=N)N)NC(=O)[C@H](CCCNC(=N)N)NC(=O)[C@@H]2CCCN2C(=O)[C@H](Cc2ccccc2)NC(=O)[C@H](CCCNC(=N)N)NC(=O)[C@H](Cc2ccccc2)NC(=O)[C@H](CCCNC(N)=O)NC(=O)[C@H](CCCNC(=N)N)NC(=O)[C@H](Cc2ccc(O)cc2)NC(=O)[C@@H]2CCCN2C(=O)[C@H]2CCCN2C(=O)[C@H](CCCCN)NC(=O)[C@H](CCCNC(N)=O)NC(=O)[C@H](Cc2ccc(O)cc2)NC1=O [compound 24] (cyclo(YR[Cit]FRFPRR[2Nal]VY[Cit]K[dP]P)) | 108 µM | 850 nM | 0.7% |
| CC(C)[C@@H]1NC(=O)[C@H](Cc2ccc3ccccc3c2)NC(=O)[C@H](CCCNC(=N)N)NC(=O)[C@H](CCCNC(=N)N)NC(=O)[C@H]2CCCN2C(=O)[C@H](CCCNC(N)=O)NC(=O)[C@H](CCCNC(=N)N)NC(=O)[C@H](C(C)C)NC(=O)[C@H](CCCNC(N)=O)NC(=O)[C@H](CCCNC(=N)N)NC(=O)[C@H](Cc2ccc(O)cc2)NC(=O)[C@@H]2CCCN2C(=O)[C@H]2CCCN2C(=O)[C@H](CCCCN)NC(=O)[C@H](CCCNC(N)=O)NC(=O)[C@H](Cc2ccc(O)cc2)NC1=O [compound 25] (cyclo(YR[Cit]VR[Cit][dP]RR[2Nal]VY[Cit]K[dP]P)) | 108 µM | 1000 nM | 0% |
| CC(C)[C@@H]1NC(=O)[C@H](CCCNC(=N)N)NC(=O)[C@H](Cc2ccccc2)NC(=O)[C@H](CCCNC(N)=O)NC(=O)[C@H](CCCNC(=N)N)NC(=O)[C@H](Cc2ccc(O)cc2)NC(=O)[C@@H]2CCCN2C(=O)[C@H]2CCCN2C(=O)[C@H](CCCCN)NC(=O)[C@H](CCCNC(N)=O)NC(=O)[C@H](Cc2ccc(O)cc2)NC(=O)[C@H](Cc2ccccc2)NC(=O)[C@H](Cc2ccc3ccccc3c2)NC(=O)[C@H](CCCNC(=N)N)NC(=O)[C@H](CCCNC(=N)N)NC(=O)[C@@H]2CCCN2C1=O [compound 28] (cyclo(YR[Cit]FRVPRR[2Nal]FY[Cit]K[dP]P)) | 117 µM | 2680 nM | 0.9% |
| CC(C)[C@@H]1NC(=O)[C@H](CCCNC(N)=O)NC(=O)[C@H](CCCNC(=N)N)NC(=O)[C@H](Cc2ccc(O)cc2)NC(=O)[C@@H]2CCCN2C(=O)[C@H]2CCCN2C(=O)[C@H](CCCCN)NC(=O)[C@H](CCCNC(N)=O)NC(=O)[C@H](Cc2ccc(O)cc2)NC(=O)[C@H](Cc2ccccc2)NC(=O)[C@H](Cc2ccc3ccccc3c2)NC(=O)[C@H](CCCNC(=N)N)NC(=O)[C@H](CCCNC(=N)N)NC(=O)[C@@H]2CCCN2C(=O)[C@H](CCCNC(N)=O)NC(=O)[C@H](CCCNC(=N)N)NC1=O [compound 31] (cyclo(YR[Cit]VR[Cit]PRR[2Nal]FY[Cit]K[dP]P)) | 82 µM | 1470 nM | 0.1% |
| CC(C)[C@@H]1NC(=O)[C@H](CCCNC(N)=O)NC(=O)[C@H](CCCNC(=N)N)NC(=O)[C@H](Cc2ccc(O)cc2)NC(=O)[C@@H]2CCCN2C(=O)[C@H]2CCCN2C(=O)[C@H](CCCCN)NC(=O)[C@H](CCCNC(N)=O)NC(=O)[C@H](Cc2ccc(O)cc2)NC(=O)[C@H](Cc2ccccc2)NC(=O)[C@H](Cc2ccc3ccccc3c2)NC(=O)[C@H](CCCNC(=N)N)NC(=O)[C@H](CCCNC(=N)N)NC(=O)[C@H]2CCCN2C(=O)[C@H](C(C)C)NC(=O)[C@H](CCCNC(=N)N)NC1=O [compound 32] (cyclo(YR[Cit]VRV[dP]RR[2Nal]FY[Cit]K[dP]P)) | 85 µM | 760 nM | 0.5% |
| N=C(N)NCCC[C@@H]1NC(=O)[C@H](Cc2ccccc2)NC(=O)[C@H](CCCNC(N)=O)NC(=O)[C@H](CCCNC(=N)N)NC(=O)[C@H](Cc2ccc(O)cc2)NC(=O)[C@@H]2CCCN2C(=O)[C@H]2CCCN2C(=O)[C@H](CCCCN)NC(=O)[C@H](CCCNC(N)=O)NC(=O)[C@H](Cc2ccc(O)cc2)NC(=O)[C@H](Cc2ccccc2)NC(=O)[C@H](Cc2ccc3ccccc3c2)NC(=O)[C@H](CCCNC(=N)N)NC(=O)[C@H](CCCNC(=N)N)NC(=O)[C@H]2CCCN2C(=O)CNC1=O [compound 38] (cyclo(YR[Cit]FRG[dP]RR[2Nal]FY[Cit]K[dP]P)) | 348 µM | 720 nM | 0.3% |

Reference: patent US8895695B2, “Template-fixed beta-hairpin peptidomimetics with CXCR4 antagonizing activity” (priority 2003, dated 2014)
